Laboratory results as given in patent publication US10426815B2, “Prevention and treatment of itch with an MRGPR antagonist” (THE GENERAL HOSPITAL CORPORATION, priority 2015, dated 2019).
“Also recorded” adds a separate entry of the source.

Assays:
MrgA1 (mouse MrgprA1) = biological target: T1, MrgA1 (mouse MrgprA1) (Mus musculus, UniProt Q91WW5); assay: Calcium imaging of cells transfected with the GPCR (Table 1); assay type: cell-based; conditions: for inhibition of SP-induced activation of mouse MrgprA1: FIG. 6a: SP 5 μM, inhibitors 10 μM, FK888 10 μM; for activation of mouse MrgprA1 by the substance (in words): NPFF 50 μM, SP at nanomolar concentrations
T1 construct: host or cells: HeLa cells
T1 sequence (Q91WW5 1-304): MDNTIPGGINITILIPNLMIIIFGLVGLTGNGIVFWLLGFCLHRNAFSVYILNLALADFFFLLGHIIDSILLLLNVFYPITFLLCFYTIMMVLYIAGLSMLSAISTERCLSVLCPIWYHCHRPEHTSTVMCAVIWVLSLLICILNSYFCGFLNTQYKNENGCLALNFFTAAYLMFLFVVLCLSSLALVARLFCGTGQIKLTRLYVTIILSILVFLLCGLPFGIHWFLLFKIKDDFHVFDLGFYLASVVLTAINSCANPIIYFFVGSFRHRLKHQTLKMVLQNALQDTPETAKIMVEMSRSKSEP
Protocol: (§1) human MRGPRX2 was isolated by PCR from human genomic DNA using the forward and reverse primers, […] (SEQ. ID. NO: 3) and […] (SEQ. ID. NO: 4), and cloned into pcDNA3.1(−). The mouse MrgprA1 cDNA expression clone was purchased from ORIGENE Technologies. The mouse MrgprB2 coding sequences were PCR-amplified from mouse genomic DNA using the primer pair, […] (SEQ. ID. NO: 5) and […] (SEQ. ID. NO: 6), and cloned into pcDNA3.1 (−).
(§2) 10 μg of expression vector (human MRGPRX2, mouse MrgprA1 or NK1) and 10 μl of LIPOFECTAMINE 2000 transfection reagent were diluted into 0.5 ml of DMEM and separately left at room temperature (RT) for 5 min. They were then mixed and incubated at RT for 20 minutes prior to being added to HeLa cells. HeLa cells were grown to confluence, trypsinized and 1×10^6 cells were pelleted in a 15 ml tube by centrifugation at 1000 rpm for 5 minutes. The DMEM-LIPOFECTAMINE 2000-DNA mixture (1 ml) was then added to the cell pellet, suspended and incubated at RT for 5 minutes. 2 ml of complete DMEM with 10% FBS without antibiotics were added to the tube, mixed by inverting the tube, plated into a 96-well glass bottom plate at 50,000 cells/well, and placed in a 37° C. CO2 incubator for 3 hours. HeLa cells transfected with salmon sperm DNA were plated as a control. The medium was changed after 3 hours and left in the incubator. 24 hours after transfection, the medium in the wells was removed and 100 μl of complete DMEM containing 2 μM of FURA-2 were added to each well and left at room temperature in the dark for 1 hr. Following loading with FURA-2, the medium was removed, washed with PBS and replaced with 90 μl of HEPES-buffered saline (20 mM HEPES, 115 mM NaCl, 5.4 mM KCl, 2 mM CaCl2, 0.8 mM MgCl2, 13.8 mM glucose, pH 7.4).
(§3) Calcium imaging was performed immediately after loading cells with Fura-2, using a ZEISS Axiovert 200M microscope platform equipped with a flipping filter wheel for ratiometric imaging. Axiovision software, version 4.6 was used for calcium image analysis of the cells excited at 340 nm and 380 nm. Agonists were added at 15 seconds after the start of the excitation procedure. Antagonists were added five minutes before imaging with the agonists. Images were taken every 5 seconds, including at zero time, during a 90 second period or longer if required. The software later analyzed all images taken during each excitation period. Ratiometric changes were measured in 10-20 cells in each individual experiment. An average of the fluorescence of the cells in each image was calculated and plotted against time in seconds.
HeLa cells transfected with human MRGPRX2, mouse MrgprA1 and NK1 cDNAs were subjected to ratiometric imaging as described above with SP at concentrations from 0.1 nM-50 μM. Each of the concentration dependent readings was performed in triplicate. Maximum intensities at each of the dilutions were calculated and plotted against concentration using GraphPad Prism software. Error bars represent SEM.
The top row lists ligands that have been tested versus the various receptors, both in the absence and presence of QWF.

MrgB2 (mouse MrgprB2) = biological target: T2, MrgB2 (mouse MrgprB2) (Mus musculus, UniProt Q3KNA1); assay: as above; assay type: cell-based; conditions: for inhibition of SP-induced activation of mouse MrgprB2: FIG. 11: SP 50 μM, NK1 antagonists 50 μM
T2 construct: expressed in transfected cells; host or cells: HeLa cells, pcDNA3.1(-)
T2 sequence (Q3KNA1 1-338): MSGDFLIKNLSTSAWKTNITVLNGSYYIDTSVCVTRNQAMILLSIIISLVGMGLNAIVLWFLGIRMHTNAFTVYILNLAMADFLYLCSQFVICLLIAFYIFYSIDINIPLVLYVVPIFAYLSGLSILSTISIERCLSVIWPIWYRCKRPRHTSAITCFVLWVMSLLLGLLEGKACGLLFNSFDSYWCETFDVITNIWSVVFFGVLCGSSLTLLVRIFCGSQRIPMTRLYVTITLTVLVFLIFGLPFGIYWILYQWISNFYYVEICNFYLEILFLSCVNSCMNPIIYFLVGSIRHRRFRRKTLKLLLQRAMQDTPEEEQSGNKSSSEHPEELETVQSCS
Protocol: as §1
as §2, with “hr.” for “hr. Following loading with FURA-2, the medium was removed, washed with PBS and replaced with 90 μl of HEPES-buffered saline (20 mM HEPES, 115 mM NaCl, 5.4 mM KCl, 2 mM CaCl2, 0.8 mM MgCl2, 13.8 mM glucose, pH 7.4).”
as §3

Molecule | inhibition of SP-induced activation of mouse MrgprA1 (MrgA1 (mouse MrgprA1)) | inhibition of SP-induced activation of mouse MrgprB2 (MrgB2 (mouse MrgprB2)) | activation of mouse MrgprA1 by the substance (in words) (MrgA1 (mouse MrgprA1)) | activation of mouse MrgprB2 by the substance (in words) (MrgB2 (mouse MrgprB2)) | further results
FC(F)(F)c1cc(CO[C@H]2CCCN[C@H]2c2ccccc2)cc(C(F)(F)F)c1 [L-733060] | did not impact | antagonized; also recorded: antagonists | – | – | inhibition of SP-induced activation of mouse MrgprA1 (MrgA1 (mouse MrgprA1); listed as L733060): not
C[C@@H](O[C@H]1OCCN(Cc2n[nH]c(=O)[nH]2)[C@H]1c1ccc(F)cc1)c1cc(C(F)(F)F)cc(C(F)(F)F)c1 [aprepitant] | did not impact and not | antagonized; also recorded: antagonists | – | – | –
Boc-Gln-D-Trp(Formyl)-Phe benzyl ester trifluoroacetate [QWF] | excellent inhibitor; also recorded: potent antagonist; also recorded: inhibits; also recorded: blocks | inhibits; also recorded: antagonized; also recorded: antagonist | – | – | inhibition of mMrgprA1 activation by compound 48/80 (MrgA1 (mouse MrgprA1)): inhibits; inhibition of mMrgprB2 activation by compound 48/80 (MrgB2 (mouse MrgprB2)): inhibits; inhibition of mouse MrgprB2 activation by atracurium and ciprofloxacin (MrgB2 (mouse MrgprB2); FIG. 8a): antagonized; also recorded: inhibits; inhibition of mMrgprB2 activation by SLIGRL (MrgB2 (mouse MrgprB2); SLIGRL 10 μM, QWF 10 μM (FIG. 12)): inhibits
SLIGRL: tethered hexapeptide ligand of mouse PAR2 (SEQ ID NO: 7) | – | – | activates | activates | –
SP: inflammatory undecapeptide neuropeptide of the tachykinin family, synthesized by GenScript | – | – | activates; also recorded: specifically activated | activates | –
